Values quoted from earlier work, collected in patent US20070037740A1, “Combination therapy with glatiramer acetate and alphacalcidol for the treatment of multiple sclerosis” (priority 2003, published 2007).

Legend:
[1] = test system: murine experimental autoimmune encephalomyelitis (EAE)
[2] = daily subcutaneous injections, 20 mg/injection

Compound | progression of murine EAE ([1]; administered after the induction of EAE) | development of murine EAE ([1]; mouse, in vivo) | appearance of "black holes" (multiple sclerosis; [2]) | appearance of new lesions by magnetic resonance imaging (MRI) (multiple sclerosis; [2]) | progression of disability (multiple sclerosis; [2]) | relapse rates (multiple sclerosis; [2]) | effective in treating multiple sclerosis (MS) (multiple sclerosis; in vivo)
C=C1/C(=C\C=C2/CCC[C@]3(C)[C@@H]([C@H](C)CCCC(C)(C)O)CC[C@@H]23)C[C@@H](O)C[C@@H]1O [1α,25-dihydroxycholecalciferol] | prevents the progression | prevents the development |  |  |  |  | 
L-glutamic acid polymer with L-alanine, L-lysine and L-tyrosine, acetate (salt) [glatiramer acetate] |  |  | reduce | reduce | reduce | reduce | effective
